The subject of the test is submitochondrial electron transport particles (ETP) having competent electron transport enzyme complex I. Nature of the test: facilitated electron withdrawal bioassay with SOD-depleted submitochondrial electron transport particles (adrenochrome formation, absorbance at 480 nm). The test is classed as biochemical, bovine (beef heart). To be noted: for lowest observable effect concentration (LOEC): concentration giving a response three standard deviations above mean control, HEPES buffer pH 7.2, 1.5 mM epinephrine, 0.5 mg ETP, 125 uM NADH, 10 minute incubation; for lowest observable effect concentration (LOEC) / relative potency to induce a prooxidant state (FIG. 4): 0.2 ug per ml antimycin A; for relative potency to induce a prooxidant state (FIG. 4): ranking among the five agents tested, 0 to 10 ug per ml toxicant. As for the experimental part:
The practice of the present invention began with the creation of submitochondrial electron transport particles (ETP) isolated from beef hearts. These are also referred to as submitochondrial particles. The mitochondria were isolated from bovine heart muscle by the method of Blair, supra. The superoxide dismutase-depleted ETP particles were prepared by sonicating the thawed mitochondria for two minutes in a medium containing 0.25M sucrose and 2 mM EDTA, pH 7.5, at a protein concentration of 25 mg per ml. The result was diluted with an equal volume of 0.25M sucrose and adjusted to a pH of 7.5 after which it was centrifuged for 40 minutes at 105,000×g. The resulting ETP particles were washed in ten volumes of 0.25M sucrose and sedimented by centrifugation. After treatment the ETP particles were stored frozen in buffered 0.25M sucrose at a protein concentration of 20 mg per ml.
The test medium contained 50 mM HEPES buffer, 1.5 mM epinephrine and 0.4 uM antimycin. The medium was adjusted to a pH of 7.2 with 5M potassium hydroxide and dispensed in 1.8 ml aliquots into 1-CM path length glass cuvettes. Either aqueous diluent or the test sample was added in a volume of 20-50 ul so that the final concentration ranged between 0 and 100 ug per ml. Following the addition of 0.5 mg of the SOD-depleted ETP particles suspended in a 0.1 ml 50 mM HEPES buffer, the cuvettes were covered with parafilm and inverted three times to mix the contents. First a base line absorbance reading was taken by the spectrophotometer set for 480 nm.
After the base line reading was taken, the reaction was started by adding 50 ul of 5 mM NADH. The final absorbance readings were then taken after a 10 minute incubation at room temperature. The final absorbance readings were used to calculate a lowest observable effect concentration (LOEC) for each of the chemicals tested. […] It is intended that the LOEC value be analogous to the limited detection value used for environmental samples subject to conventional analysis.
All experiments summarized in this table and in FIG. 4 were conducted with 2 ml HEPES buffer, a pH of 7.2, 1.5 mM epinephrine, 0.2 ug per ml antimycin A, 0.5 mg ETP, 125 uM NADH and 0 to 10 ug per ml of the test toxicant.

For the molecule `COc1cccc2c1C(=O)c1c(O)c3c(c(O)c1C2=O)C[C@@](O)(C(=O)CO)C[C@@H]3O[C@H]1C[C@H](N)[C@H](O)[C@H](C)O1` [Adriamycin], the “lowest observable effect concentration (LOEC)” value is 6300 µg/L and the “relative potency to induce a prooxidant state (FIG. 4)” value is “weakest”. Turning to `c1cc[n+]2c(c1)-c1cccc[n+]1CC2` [Diquat], the “lowest observable effect concentration (LOEC)” value was 1600 µg/L.

As to `O=[N+]([O-])c1cc[n+]([O-])c2ccccc12` [4-Nitroquinoline-N-oxide], the “lowest observable effect concentration (LOEC)” value came out at 1600 µg/L. In the case of `O=S(=O)(O)c1ccccc1N=Nc1c(S(=O)(=O)O)cc2cc(S(=O)(=O)O)c(N=Nc3ccccc3S(=O)(=O)O)c(O)c2c1O` [Sulfonazo III], the “lowest observable effect concentration (LOEC)” value was determined as 320 µg/L and the “relative potency to induce a prooxidant state (FIG. 4)” value was “strongest inducer of the prooxidant states”.

With `C[n+]1ccc(-c2cc[n+](C)cc2)cc1` [Paraquat], the “lowest observable effect concentration (LOEC)” value is 3500 µg/L. Moreover, the “effect of antimycin A or rotenone on the response to paraquat (FIG. 3)” value (with vs without 0.2 ug per ml antimycin A or 0.2 ug per ml rotenone, absorbance at 480 nm) is on record as “increases the rate at which paraquat can draw electrons from the electron transport cascade”.

The record behind these values is patent publication US5198336A, “Bioassay for chemicals which generate prooxidant states” (Wisconsin Alumni Research Foundation, priority 1989, dated 1993).
